For 19 molecules, EC50 results are on record in patent US9656963B2 (BRISTOL-MYERS SQUIBB COMPANY, priority 2012, dated 2017).

The target in the test is T1, hGPR40 (Homo sapiens, UniProt O14842).
T1 construct: 3x FLAG; expressed in transfected cells
T1 sequence (O14842 whole entry): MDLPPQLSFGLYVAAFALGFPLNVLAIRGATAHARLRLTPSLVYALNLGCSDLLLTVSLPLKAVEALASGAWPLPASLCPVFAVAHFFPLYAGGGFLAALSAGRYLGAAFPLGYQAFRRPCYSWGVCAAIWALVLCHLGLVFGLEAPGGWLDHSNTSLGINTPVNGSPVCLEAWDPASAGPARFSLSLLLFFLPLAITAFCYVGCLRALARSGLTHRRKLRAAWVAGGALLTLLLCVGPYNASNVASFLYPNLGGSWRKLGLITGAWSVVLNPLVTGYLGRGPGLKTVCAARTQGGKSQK
The test is described as follows: FDSS-Based Intracellular Calcium Assay. The class given is cell-based. Particulars: cells expressing GPR40, intracellular Ca2+ response. The procedure: FDSS-Based Intracellular Calcium Assay
Cell lines expressing GPR40 are generated using the pDEST 3× flag gene expression system and are cultured in culture medium comprising the following components: F12 (Gibco #11765), 10% lipid deprived fetal bovine serum, 250 μg/ml zeocin and 500 μg/ml G418. To conduct the fluorescent imaging plate reader (FLIPR)-based calcium flux assay to measure intracellular Ca^2+ response, cells expressing GPR40 are plated on 384 well plates (BD Biocoat #356697) at a density of 20,000 cells/20 μL medium per well in phenol red and serum-free DMEM (Gibco #21063-029) and incubated overnight. […] Compounds are dissolved in DMSO and diluted to desired concentrations with assay buffer and added to the cells as 3x solution (20 μL per well). Run fluorescence/luminescence reader FDSS (Hamamatsu) to read intracellular Ca^2+ response.
A word on the EC50: it is the concentration that produces a half-maximal response. For the molecule `Cc1ccccc1Oc1ccc(N2N=C(C(F)(F)F)CC2CC(=O)O)cc1` (single isomer, unassigned) [Example 11, Isomer 1, 2-(1-(4-(o-tolyloxy)phenyl)-3-(trifluoromethyl)-4,5-dihydro-1H-pyrazol-5-yl)acetic acid], the EC50 was 70 nM.
Turning to `Cc1ccccc1Oc1ccc(N2N=C(C(F)(F)F)CC2CC(=O)O)cc1` (single isomer, unassigned) [Example 11, Isomer 2, 2-(1-(4-(o-tolyloxy)phenyl)-3-(trifluoromethyl)-4,5-dihydro-1H-pyrazol-5-yl)acetic acid], the concentration for a half-maximal effect (EC50) is 1850 nM.
With `COc1ccc(F)c(-c2ccc(Oc3ccc(N4N=C(C(F)(F)F)CC4CC(=O)O)cc3)c(C)c2)c1` (single isomer, unassigned) [Example 14, Isomer 1, 2-(1-(4-(2′-fluoro-5′-methoxy-3-methylbiphenyl-4-yloxy)phenyl)-3-(trifluoromethyl)-4,5-dihydro-1H-pyrazol-5-yl)acetic acid] the figure was 165 nM; with `COc1ccc(F)c(-c2ccc(Oc3ccc(N4N=C(C(F)(F)F)CC4CC(=O)O)cc3)c(C)c2)c1` (single isomer, unassigned) [Example 14, Isomer 2, 2-(1-(4-(2′-fluoro-5′-methoxy-3-methylbiphenyl-4-yloxy)phenyl)-3-(trifluoromethyl)-4,5-dihydro-1H-pyrazol-5-yl)acetic acid], 160 nM; with `COc1cc(-c2ccc(Oc3ccc(N4N=C(C(F)(F)F)CC4CC(=O)O)cc3)c(C)c2)c(F)cn1` (single isomer, unassigned) [Example 15, Isomer 1, 2-(1-(4-(4-(5-fluoro-2-methoxypyridin-4-yl)-2-methylphenoxy)phenyl)-3-(trifluoromethyl)-4,5-dihydro-1H-pyrazol-5-yl)acetic acid], 270 nM.
Consider `COc1cc(-c2ccc(Oc3ccc(N4N=C(C(F)(F)F)CC4CC(=O)O)cc3)c(C)c2)c(F)cn1` (single isomer, unassigned) [Example 15, Isomer 2, 2-(1-(4-(4-(5-fluoro-2-methoxypyridin-4-yl)-2-methylphenoxy)phenyl)-3-(trifluoromethyl)-4,5-dihydro-1H-pyrazol-5-yl)acetic acid], for which the EC50 was determined as 530 nM.
With `COc1ccc(F)c(-c2ccc(Oc3ccc(N4N=C(C(F)(F)F)CC4CC(=O)O)cc3)cc2C)c1` (single isomer, unassigned) [Example 16, Isomer 1, 2-(1-(4-(2′-fluoro-5′-methoxy-2-methylbiphenyl-4-yloxy)phenyl)-3-(trifluoromethyl)-4,5-dihydro-1H-pyrazol-5-yl)acetic acid] the figure was 670 nM; with `COc1ccc(F)c(-c2ccc(Oc3ccc(N4N=C(C(F)(F)F)CC4CC(=O)O)cc3)cc2C)c1` (single isomer, unassigned) [Example 16, Isomer 2, 2-(1-(4-(2′-fluoro-5′-methoxy-2-methylbiphenyl-4-yloxy)phenyl)-3-(trifluoromethyl)-4,5-dihydro-1H-pyrazol-5-yl)acetic acid], 340 nM.
With `COc1ccc(F)c(-c2ccc(Cc3ccc(N4N=C(C(F)(F)F)CC4CC(=O)O)cc3)c(C)c2)c1` (single isomer, unassigned) [Example 17, Isomer 1, 2-(1-(4-((2′-fluoro-5′-methoxy-3-methylbiphenyl-4-yl)methyl)phenyl)-3-(trifluoromethyl)-4,5-dihydro-1H-pyrazol-5-yl)acetic acid] the figure was 150 nM.
The same measure for `COc1ccc(F)c(-c2ccc(Cc3ccc(N4N=C(C(F)(F)F)CC4CC(=O)O)cc3)c(C)c2)c1` (single isomer, unassigned) [Example 17, Isomer 2, 2-(1-(4-((2′-fluoro-5′-methoxy-3-methylbiphenyl-4-yl)methyl)phenyl)-3-(trifluoromethyl)-4,5-dihydro-1H-pyrazol-5-yl)acetic acid]: 90 nM; for `COc1ccc(F)c(-c2ccc(Cc3ccc(N4N=C(C(F)(F)F)CC4CC(=O)O)cc3)c(F)c2)c1` (single isomer, unassigned) [Example 19, Isomer 1, 2-(1-(4-((2′,3-difluoro-5′-methoxybiphenyl-4-yl)methyl)phenyl)-3-(trifluoromethyl)-4,5-dihydro-1H-pyrazol-5-yl)acetic acid]: 580 nM.
With `COc1ccc(F)c(-c2ccc(Cc3ccc(N4N=C(C(F)(F)F)CC4CC(=O)O)cc3)c(F)c2)c1` (single isomer, unassigned) [Example 19, Isomer 2, 2-(1-(4-((2′,3-difluoro-5′-methoxybiphenyl-4-yl)methyl)phenyl)-3-(trifluoromethyl)-4,5-dihydro-1H-pyrazol-5-yl)acetic acid], the EC50 was 90 nM.
With `COc1ccc(F)c(-c2ccc(Cc3ccc(N4N=C(C(F)(F)F)CC4CC(=O)O)cc3)c(Cl)c2)c1` (single isomer, unassigned) [Example 20, Isomer 1, 2-(1-(4-((3-chloro-2′-fluoro-5′-methoxybiphenyl-4-yl)methyl)phenyl)-3-(trifluoromethyl)-4,5-dihydro-1H-pyrazol-5-yl)acetic acid] the figure was 470 nM; with `COc1ccc(F)c(-c2ccc(Cc3ccc(N4N=C(C(F)(F)F)C[C@@H]4CC(=O)O)cc3)c(Cl)c2)c1` (single isomer, unassigned) [Example 20, Isomer 2], 50 nM.
The same measure for `COc1ccc(F)c(-c2cc(C)c(Cc3ccc(N4N=C(C(F)(F)F)CC4CC(=O)O)cc3)c(F)c2)c1` (single isomer, unassigned) [Example 21, Isomer 1, 2-(1-(4-((2′,3-difluoro-5′-methoxy-5-methylbiphenyl-4-yl)methyl)phenyl)-3-(trifluoromethyl)-4,5-dihydro-1H-pyrazol-5-yl)acetic acid]: 500 nM; for `COc1ccc(F)c(-c2cc(C)c(Cc3ccc(N4N=C(C(F)(F)F)CC4CC(=O)O)cc3)c(F)c2)c1` (single isomer, unassigned) [Example 21, Isomer 2, 2-(1-(4-((2′,3-difluoro-5′-methoxy-5-methylbiphenyl-4-yl)methyl)phenyl)-3-(trifluoromethyl)-4,5-dihydro-1H-pyrazol-5-yl)acetic acid]: 270 nM; for `COc1ccc(F)c(-c2ccc(Cc3ccc(N4N=C(C(F)(F)F)CC4CC(=O)O)cc3)cc2C)c1` (single isomer, unassigned) [Example 22, Isomer 1, 2-(1-(4-((2′-fluoro-5′-methoxy-2-methylbiphenyl-4-yl)methyl)phenyl)-3-(trifluoromethyl)-4,5-dihydro-1H-pyrazol-5-yl)acetic acid]: 770 nM.
The same measure for `COc1ccc(F)c(-c2ccc(Cc3ccc(N4N=C(C(F)(F)F)CC4CC(=O)O)cc3)cc2C)c1` (single isomer, unassigned) [Example 22, Isomer 2, 2-(1-(4-((2′-fluoro-5′-methoxy-2-methylbiphenyl-4-yl)methyl)phenyl)-3-(trifluoromethyl)-4,5-dihydro-1H-pyrazol-5-yl)acetic acid]: 350 nM; for `COc1cccc(-c2ccc(Cc3ccc(N4N=C(C(F)(F)F)CC4CC(=O)O)cc3)c(C)c2)c1` (single isomer, unassigned) [Example 26, Isomer 1, 2-(1-(4-((3′-methoxy-3-methylbiphenyl-4-yl)methyl)phenyl)-3-(trifluoromethyl)-4,5-dihydro-1H-pyrazol-5-yl)acetic acid]: 330 nM.
